From patent US20240300902A1, “NOVEL TRANSGLUTAMINASE 2 INHIBITOR AND USE THEREOF” (MD BIOLAB CO., LTD., priority 2021, published 2024)

Experiments:
[1] = test system: ACHN cancer cell population; test: Sulforhodamine B (SRB) assay; assay type: cell-based, Human
Protocol: Cells (10,000 cells/well, 100 μL) were incubated in a 96-well microtiter plate. After 24 hours of the incubation, drug (100 μL) was added to each of the wells, and the culture was further incubated at 37° C. for 48 hours. The cells were then fixed in TCA (50 μL per well). The plates were incubated at 4° C. for a minimum of 1 hour or a maximum of 3 hours. The liquid was removed from the plates, and then the plate was washed five times with water and then dried at room temperature (RT) for about 12-24 hours. The fixed cells were stained with 100 μL SRB for 5 minutes at room temperature. After the staining, the plate was washed three times with 1% (w/v) glacial acetic acid and dried at room temperature for about 12-24 hours. Next, the SRB was then dissolved in 10 mM Trizma base, and the absorbance was measured at 515 nm. The effect of the drug was expressed as GI50 (50% growth inhibition).
Specifically, each of the LDD3732, LDD3922, and LDD3959 in concentrations of 10^−9, 10^−8, 10^−7, 10^−6, and 10^−5 M were tested, and the percentage decrease in the control value of SRB was measured using an ACHN cancer cell population.

ACHN cells = test: Preclinical xenograft tumor model (ACHN, BALB/c nude mice); assay type: in vivo; conditions: 1 mg/kg or 10 mg/kg PO once daily, 5 days per week
Protocol: Six-week-old male-specific, pathogen-free BALB/c nude mice (n=20) were purchased from the central lab (Animal Inc., Seoul, Korea). Each mouse was injected subcutaneously with ACHN cells (5.0×10^6 cells/each). When tumors reached an appropriate size (100 to 150 mm^3 for ACHN), mice were randomly selected and classified into 4 groups (n=4 to 5) according to the volume and weight of the tumor: The control group was untreated; the streptonigrin-treated group was administered in an amount of 0.2 mg/kg; and the LDD3959-treated group was administered in an amount of 1 mg/kg or 10 mg/kg. The streptonigrin and LDD3959 were orally administered to each treatment group, once daily for 5 days per week. For tumor identification, the mice were euthanized with 7.5% CO2 and the tumors were recovered for immunohistochemical analysis. The tumor volume was calculated according to the following equation: V=(A×B×B)/2 where V is the volume (mm^3), A is the long diameter (mm), and B is the short diameter (mm). The experiment was reviewed and approved by the Institutional Animal Care and Use Committee (IACUC) of the National Cancer Center Research Institute (NCCRI). […]

renal cancer cell lines = test: Cell viability in various renal cancer cell lines (water soluble tetrazolium salt); assay type: cell-based; conditions: various concentrations, 48 hours
Protocol: Cells (20,000 cells/well, 100 μl) were incubated in a 96-well microplate. After 24 hours of the incubation, LDD3959 […] were added to each well in various concentrations by using a serum-free cell culture medium, and the cells were cultured at 37° C. in the presence of 5% CO2 for 2 hours. Next, the existing culture medium was replaced with a culture medium containing 10% FBS, and then incubation was carried out again for 48 hours. The existing culture medium was removed, and a new culture medium containing a water soluble tetrazolium salt was added. After that, the plate was incubated at 37° C. in the presence of 5% CO2 for a duration in the range of 1 hour to 3 hours, and then absorbance was measured at 450 nm.

ACHN renal cancer cells = test: Antitumor effect in in vivo renal cancerous tumors, ACHN xenograft, oral administration; parameters: species or system mice; conditions: oral administration daily
Protocol: (§1) To examine the antitumor effect of LDD3959, CanN.Cg-Foxn1nu/CrljOri mice were used as experimental animals. The mice were xenografted with ACHN renal cancer cells or CAKI-1 renal cancer cells to induce tumors. The ACHN renal cancer cell-transplanted group was orally administered with LDD3959, and the CAKI-1-transplanted group was intraperitoneally administered with LDD3959. In this test, the oral administration was performed daily and the intraperitoneal administration was performed twice a week.

[2] = test system: CAKI-1 renal cancer cells; test: Antitumor effect in in vivo renal cancerous tumors, CAKI-1 xenograft, intraperitoneal administration; parameters: species or system mice
Protocol: as §1

MDA-MB231 cells = test: Cell viability in breast cancer cell lines according to concentration; assay type: cell-based
Protocol: First breast cancer cells (MDA-MB-453, HCC-1806, HCC-1937: 10,000 cells/well, 100 μl) and second breast cancer cells (MDA-MB-231, MCF-7: 10,000 cells/well, 100 μl) were cultured in 96-well microplates.
After 24 hours, LDD3959 […] of various concentrations were added to each well, using a serum-free cell culture medium, and a reaction was allowed to proceed for 2 hours at 37° C. in the presence of 5% CO2. The culture medium was replaced with a culture medium containing 10% FSB, and a reaction was performed for 72 hours.
The existing culture medium was removed, and a new culture medium containing a water soluble tetrazolium salt was added. After that, the plate underwent a reaction at 37° C. in the presence of 5% CO2 for a duration in the range of 1 hour to 3 hours, and then absorbance was measured at 450 nm.

[3] = test system: MDA-MB231 breast cancer cells; test: Cell viability in breast cancer cell lines according to treatment time; assay type: cell-based; conditions: MDA-MB231, 24, 48 and 72 hours
Protocol: Breast cancer cells (50,000 cells/well, 100 μl) were cultured in 96-well microplates, and after 24 hours, LDD3959 was added to each well in various concentrations, using a serum-free cell culture medium. In each well, a reaction was performed at 37° C. in the presence of 5% CO2 for 2 hours.
Next, the existing culture medium was replaced with a culture medium containing 10% FSB, and 24, 48, and 72 hours of reactions were performed. After the completion of each reaction, the exiting culture medium was removed, a culture medium containing a water soluble tetrazolium (WST) salt was added, the plate was allowed to react at 37° C. in the presence of 5% CO2 for a duration in the range of 1 hour to 3 hours, and the absorbance was measured at 450 nm.

MDA-MB-231 cells = test: Protein expression level change in TNBC breast cancer cells according to treatment time, western blot; assay type: cell-based; conditions: MDA-MB-231, 24, 48 and 72 hours
430 kinds of kinases = test: Kinase panel assay conducted by Eurofins; assay type: biochemical
Protocol: A total of 430 kinds of kinases were treated with 1 μM of LDD3959 through a kinase panel assay conducted by Eurofins to examine each activity.
The ATP concentration used in this experiment was 10 μM.

## O=C1C(Cl)=C(Cl)C(=O)c2[nH]c(-c3ccc(Br)c(F)c3)nc21 [LDD3959, 2-(4-bromo-3-fluorophenyl)-5,6-dichloro-1H-benzo[d]imidazole-4,7-dione]
[1]; Homo sapiens, 48 hours, read-out: GI50 (50% growth inhibition)
  GI50: 2.5 µM
[1]; concentration of 10^−5 M, 48 hours
  SRB measurement (percentage decrease in the control value of SRB): −11.87
[1]; concentrations 10^−6 M or lower
  decrease in cell counts: no significant decrease in cell counts
ACHN cells
  tumor volume increase rate: tumor volume increase rate decreased as the LDD3959 dose increased
Renal cancer cell lines
  cell viability in renal cancer cells: cancer cells in a variety of renal cancer cells were killed
ACHN renal cancer cells
  tumor growth inhibitory effect: concentration-dependent tumor growth inhibitory effects
[2]; CAKI-1 xenograft, intraperitoneal administration twice a week
  tumor growth inhibitory effect: concentration-dependent tumor growth inhibitory effects
[2]; intraperitoneal administration group
  hematological examination: no abnormal findings
MDA-MB231 cells; MDA-MB231, highest expression level of transglutaminase 2, 72 hours
  effective concentration for apoptosis: the effective concentration was lowest, and the efficacy was best
MDA-MB231 cells; breast cancer cell lines
  acting concentration compared with conventional transglutaminase 2 inhibitors: lower concentrations than conventional transglutaminase 2 inhibitors
[3]
  apoptosis level according to time: exhibited a low apoptosis level at the initial stage, but the apoptosis level increased
MDA-MB-231 cells
  AKT/mTOR signals: AKT/mTOR signals were inhibited
  NFκB complexes: NFκB complexes were inhibited
430 kinds of kinases; 430 kinases treated with 1 μM
  number of kinases that specifically showed inhibition: 4
430 kinds of kinases; highest concentration 1 μM, ATP 10 μM
  inhibitory activity against the 4 kinases: very good inhibitory activity
